Several values for one entry are separate records, joined by “and”; a condition that tells them apart may be missing. Identical values can stand only once. One block for each molecule: values may come before it.
Assays:
BiP NBD [1] = target: T1, BiP NBD (Homo sapiens, UniProt P11021); test: In-cyclo NMR with ATP regeneration (E1) and phosphate removal (E2): hydrolysis rate, state populations, occupancy times; type: biochemical; set-up: His6 (N, cleaved yes); made in house; host or cells: E. coli BL21-(DE3)-Lemo, pET28a vector; settings: for khydr: Fig 3 f source data: replicates [1]-[3] and average; for cycle timing: Fig 4f source data: replicates [1]-[3] and average
T1 sequence (P11021 19-406): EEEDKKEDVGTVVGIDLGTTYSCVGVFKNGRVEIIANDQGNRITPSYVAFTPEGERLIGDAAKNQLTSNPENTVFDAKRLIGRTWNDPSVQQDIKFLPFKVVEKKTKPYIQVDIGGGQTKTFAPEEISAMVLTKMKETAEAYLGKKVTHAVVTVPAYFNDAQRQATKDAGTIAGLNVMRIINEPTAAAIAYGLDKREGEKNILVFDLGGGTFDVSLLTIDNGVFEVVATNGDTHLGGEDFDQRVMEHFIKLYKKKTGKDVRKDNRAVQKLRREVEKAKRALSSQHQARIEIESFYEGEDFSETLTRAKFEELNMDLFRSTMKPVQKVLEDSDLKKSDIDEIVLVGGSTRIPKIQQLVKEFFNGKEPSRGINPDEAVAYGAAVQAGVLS
Text: In order to create a stable steady-state condition, we implemented two enzymatic systems inside the NMR tube to convert ADP into ATP and to remove the free phosphate, respectively. The first enzyme (E1) is pyruvate kinase, at catalytic amounts, which combines phosphoenol pyruvate (PEP) and ADP to form ATP (Fig. 3a). […] The second enzyme (E2) is sucrose phosphorylase, at catalytic amounts, which catalyzes the conversion of sucrose and phosphate into α-D-glucose-1-phosphate and D-fructose. […] To distinguish this experiment from equilibrium experiments, and highlight the unique setup to control ATP, ADP and Pi levels simultaneously, we refer to this setup as the “in-cyclo” NMR experiment.
We then set out to determine the kinetic parameters of the functional cycle. The NMR signal intensities of each of the three detected states are proportional to their population in the steady state. We integrated 51 non-overlapping independent methyl groups to obtain the population ratio pDtotal/pT, including 7 non-overlapping independent methyl groups to obtain the subpopulation ratio pD·Pi/pD.
The macroscopic hydrolysis rate khydr is experimentally determined from monitoring the pyruvate production. From there, the reaction flux f of the functional cycle results as19 f=khydrNBD0 The inverse of the hydrolysis rate is the average length of the functional cycle T.20 T=khydr−1 The flux is maintained along the cycle, resulting in the equations21 f=kcatNBD^ATP 22 f=koff4+koff5⋅NBD^ADP⋅Pi 23 f=koff2NBD^ADP+koff3NBD^Pi 24 f=kon1NBD^apoATP−koff1NBD^ATP 25 koff2NBD^ADP=koff4NBD^ADP⋅Pi
All in-cyclo NMR experiments were recorded with BiP NBD samples [U-^2H, ^15N, ^12C], Met-[^13CH3]^ε, Val-[^13CH3/^12C^2H3]^cγ1/cγ2, Ile-[^13CH3]^δ1 in NMR buffer (25 mM HEPES, pH 7.5, 150 mM KCl and 10 mM MgCl2) at a concentration of BiP NBD 100 μM. The in-cyclo ATP regeneration system was composed of 5 units of pyruvate kinase (E1) from rabbit muscle ( ≈ 200 nM; Sigma-Aldrich) and the concentration of phosphoenolpyruvate (PEP- Sigma-Aldrich) was adjusted to maintain the system active for at least four hours ([PEP] = 10–100 mM). The in-cyclo phosphate removal system was composed of 5 units of recombinant sucrose phosphorylase (E2) ( ≈ 500 nM; Sigma-Aldrich) and the concentration of sucrose (Sigma-Aldrich) was adjusted to maintain the system active for at least four hours ([Sucrose] = 10–100 mM). This experimental setup was modified as described in the text by selectively including E1 and/or E2 depending on the purpose of the experiments. All the experiments were recorded at minimum as experimental triplicates.
The in-cyclo experiment was initiated by the addition of 5 mM ATP (Sigma-Aldrich) and allowed to equilibrate at a temperature of 37 °C for 5 min in the NMR spectrometer. After the equilibration time 2D [^13C,^1H]-HMQC spectra were recorded in interleaved mode with 1D ^1H NMR spectra. […] The same setup was used for the alternative experiments by including or excluding E1 and/or E2.

BiP NBD [2] = target: T1, BiP NBD; test: NMR experiment with MABA-ATP (no E1, no E2) and kinetic fit of the MABA-ATP/MABA-ADP functional cycle; type: biochemical; set-up: His6 (N, cleaved yes); made in house; host or cells: E. coli BL21-(DE3)-Lemo, pET28a vector; settings: for koff / kon / Kd: MABA-ATP instead of ATP; for Kd: T = 37°C; for species: Supplementary Fig 13b
Experimental: […] After the equilibration time 2D [^13C,^1H]-HMQC spectra were recorded in interleaved mode with 1D ^1H NMR spectra. […] The same setup was used for the alternative experiments by including or excluding E1 and/or E2. When E1 was not included, the ratio of the ATP/ADP NMR signals was used to monitor their relative concentrations.
(1 picture or pasted object on this page, not shown here)

ATP consumption (BiP NBD [1]; 100 μM BiP NBD, 5 mM ATP, 37 °C): 0.15 ± 0.01 mM/min
khydr (BiP NBD [1]; mean): 1.471 min⁻¹
cycle timing (BiP NBD [1]): 42.34 s and 39.82 s and 40.31 s
cycle timing (BiP NBD [1]; mean): 41 s
catalytic ATP hydrolysis rate kcat = tT^−1 (BiP NBD [1]; from occupancy time of the T state): 0.067 s⁻¹
average length of the functional cycle T = khydr^−1 (BiP NBD [1]; in-cyclo, no calcium): 41 ± 2 s
macroscopic hydrolysis rate khydr (BiP NBD [1]; in-cyclo, no calcium, 37 °C): 1.47 ± 0.05 min⁻¹
SMILES: Nc1ncnc2c1ncn2[C@@H]1O[C@H](COP(=O)(O)OP(=O)(O)OP(=O)(O)O)[C@@H](O)[C@H]1O [ATP]
khydr (BiP NBD [1]): 1.417 min⁻¹ and 1.507 min⁻¹ and 1.488 min⁻¹

koff (BiP NBD [2]; reactions 1MABA, 2MABA, 3): 1 ± 0.3 s⁻¹
kon (BiP NBD [2]; reactions 1MABA, 2MABA, 3): 3500 ± 500 M⁻¹ s⁻¹
Kd (BiP NBD [2]; reactions 1MABA, 2MABA, 3: release to apo NBD): 280 ± 30 µM
koff (BiP NBD [2]; reactions 4MABA, 5MABA): 0.043 s⁻¹
kon (BiP NBD [2]; reactions 4MABA, 5MABA): 120 ± 20 M⁻¹ s⁻¹
Kd (BiP NBD [2]; reactions 4MABA, 5MABA: release from NBD·MABA-ADP·Pi): 360 ± 20 µM
species (BiP NBD [2]; time 4 min): 350 µM
species (BiP NBD [2]; time 10 min): 508 µM
species (BiP NBD [2]; time 16 min): 626 µM
species (BiP NBD [2]; time 22 min): 712 µM
species (BiP NBD [2]; time 28 min): 800 µM
species (BiP NBD [2]; time 34 min): 840 µM
species (BiP NBD [2]; time 40 min): 889 µM
species (BiP NBD [2]; time 46 min): 907 µM
species (BiP NBD [2]; time 52 min): 929 µM
species (BiP NBD [2]; time 58 min): 924 µM
species (BiP NBD [2]; time 64 min): 932 µM
SMILES: O=P(O)(O)O [Pi]

From PMC12126525, “Mechanism of ATP hydrolysis in the Hsp70 BiP nucleotide-binding domain” (Nature Communications, 2025)
